From US10986838B2, “Herbicides” (SYNGENTA PARTICIPATIONS AG, priority 2016, dated 2021)

Experiments:
Type in all cases: in vivo
[1] = tested on: Alopecurus myosuroides (ALOMY); assay: Pre-emergence herbicidal activity (B1); settings: Test 1a, 1000 g/ha, evaluated after 13 days, 5=total damage to plant, 0=no damage to plant
Protocol: (§1) B1 Pre-Emergence Herbicidal Activity Seeds of a variety of test species were sown in standard soil in pots: Triticum aestivium (TRZAW), Avena fatua (AVEFA), Alopecurus myosuroides (ALOMY), Echinochloa crus-galli (ECHCG), Lolium perenne (LOLPE), Zea Mays (ZEAMX), Abutilon theophrasti (ABUTH), Amaranthus retroflexus (AMARE) and Setaria faberi (SETFA). After cultivation for one day (pre-emergence) under controlled conditions in a glasshouse (at 24/16° C., day/night; 14 hours light; 65% humidity), the plants were sprayed with an aqueous spray solution derived from the formulation of the technical active ingredient in acetone/water (50:50) solution containing 0.5% Tween 20 (polyoxyethelyene sorbitan monolaurate, CAS RN 9005-64-5). The test plants were then grown in a glasshouse under controlled conditions (at 24/16° C., day/night; 14 hours light; 65% humidity) and watered twice daily. After 13 days, the test was evaluated (5=total damage to plant; 0=no damage to plant). Tables B1a and B1b Control of Weed Species by Compound of Formula (I) after Pre-Emergence Application

Avena fatua (AVEFA) [2] = assay: Pre-emergence herbicidal activity (B1); settings: Test 1a, 1000 g/ha, evaluated after 13 days, 5=total damage to plant, 0=no damage to plant
Protocol: as §1

[3] = tested on: Echinochloa crus-galli (ECHCG); assay: Pre-emergence herbicidal activity (B1); settings: Test 1a, 1000 g/ha, evaluated after 13 days, 5=total damage to plant, 0=no damage to plant
Protocol: as §1

Lolium perenne (LOLPE) [4] = assay: Pre-emergence herbicidal activity (B1); settings: Test 1a, 1000 g/ha, evaluated after 13 days, 5=total damage to plant, 0=no damage to plant
Protocol: as §1

Setaria faberi (SETFA) [5] = assay: Pre-emergence herbicidal activity (B1); settings: Test 1a, 1000 g/ha, evaluated after 13 days, 5=total damage to plant, 0=no damage to plant
Protocol: as §1

[6] = tested on: Triticum aestivium (TRZAW); assay: Pre-emergence herbicidal activity (B1); settings: Test 1a, 1000 g/ha, evaluated after 13 days, 5=total damage to plant, 0=no damage to plant
Protocol: as §1

[7] = tested on: Alopecurus myosuroides (ALOMY); assay: Post-emergence herbicidal activity (B2); settings: Test B2a, 1000 g/ha, evaluated after 13 days, 5=total damage to plant, 0=no damage to plant
Protocol: (§2) B2 Post-Emergence Herbicidal Activity Seeds of a variety of test species were sown in standard soil in pots: Triticum aestivium (TRZAW), Avena fatua (AVEFA), Alopecurus myosuroides (ALOMY), Echinochloa crus-galli (ECHCG), Lolium perenne (LOLPE), Zea Mays (ZEAMX), Abutilon theophrasti (ABUTH), Amaranthus retroflexus (AMARE) and Setaria faberi (SETFA). After 8 days cultivation (post-emergence) under controlled conditions in a glasshouse (at 24/16° C., day/night; 14 hours light; 65% humidity), the plants were sprayed with an aqueous spray solution derived from the formulation of the technical active ingredient in acetone/water (50:50) solution containing 0.5% Tween 20 (polyoxyethelyene sorbitan monolaurate, CAS RN 9005-64-5). The test plants were then grown in a glasshouse under controlled conditions (at 24/16° C., day/night; 14 hours light; 65% humidity) and watered twice daily. After 13 days, the test was evaluated (5=total damage to plant; 0=no damage to plant). Tables B2a and B2b Control of Weed Species by Compound of Formula (I) after Post-Emergence Application

Avena fatua (AVEFA) [8] = assay: Post-emergence herbicidal activity (B2); settings: Test B2a, 1000 g/ha, evaluated after 13 days, 5=total damage to plant, 0=no damage to plant
Protocol: as §2

[9] = tested on: Echinochloa crus-galli (ECHCG); assay: Post-emergence herbicidal activity (B2); settings: Test B2a, 1000 g/ha, evaluated after 13 days, 5=total damage to plant, 0=no damage to plant
Protocol: as §2

Lolium perenne (LOLPE) [10] = assay: Post-emergence herbicidal activity (B2); settings: Test B2a, 1000 g/ha, evaluated after 13 days, 5=total damage to plant, 0=no damage to plant
Protocol: as §2

Setaria faberi (SETFA) [11] = assay: Post-emergence herbicidal activity (B2); settings: Test B2a, 1000 g/ha, evaluated after 13 days, 5=total damage to plant, 0=no damage to plant
Protocol: as §2

[12] = tested on: Triticum aestivium (TRZAW); assay: Post-emergence herbicidal activity (B2); settings: Test B2a, 1000 g/ha, evaluated after 13 days, 5=total damage to plant, 0=no damage to plant
Protocol: as §2

| Structure (SMILES) | ALOMY damage score [1] | AVEFA damage score (Avena fatua (AVEFA) [2]) | ECHCG damage score [3] | LOLPE damage score (Lolium perenne (LOLPE) [4]) | SETFA damage score (Setaria faberi (SETFA) [5]) | TRAZW damage score [6] | ALOMY damage score [7] | AVEFA damage score (Avena fatua (AVEFA) [8]) | ECHCG damage score [9] | LOLPE damage score (Lolium perenne (LOLPE) [10]) | SETFA damage score (Setaria faberi (SETFA) [11]) | TRAZW damage score [12] |
| --- | --- | --- | --- | --- | --- | --- | --- | --- | --- | --- | --- | --- |
| CNc1ccc(-c2cncc(C#N)c2)nc1C(F)(F)F [Compound A1] | 0 | 1 | 1 | 1 | 4 | 0 | 0 | 3 | 3 | 2 | 5 | 2 |
| N#Cc1cncc(-c2ccc(N)c(C(F)(F)F)n2)c1 [Compound A2] | 0 | 0 | 2 | 1 | 4 | 0 | 1 | 3 | 4 | 2 | 5 | 0 |
| Nc1ccc(-c2cncc(Cl)c2)nc1C(F)(F)F [Compound A3] | 0 | 1 | 3 | 1 | 5 | 0 | 1 | 3 | 3 | 2 | 4 | 0 |
| Cc1nc(-c2cncc(OC(F)F)c2)ccc1N [Compound A4] | 0 | 0 | 1 | 1 | 2 | 0 | 1 | 3 | 2 | 1 | 4 | 1 |
| CN(C)c1ccc(-c2cncc(F)c2)nc1C(F)(F)F [Compound A38, 6-(5-fluoro-3-pyridyl)-N,N-dimethyl-2-(trifluoromethyl)pyridin-3-amine] | 0 | 2 | 5 | 0 | 5 | 0 | 1 | 4 | 5 | 2 | 5 | 1 |
| Fc1cncc(-c2ccc(N3CCOCC3)c(C(F)(F)F)n2)c1 [Compound A39, 4-[6-(5-fluoro-3-pyridyl)-2-(trifluoromethyl)-3-pyridyl]morpholine] | 0 | 0 | 3 | 0 | 3 | 0 | 0 | 2 | 4 | 2 | 4 | 0 |
| Fc1cncc(-c2ccc(N3CCCC3)c(C(F)(F)F)n2)c1 [Compound A40] | 1 | 1 | 4 | 1 | 4 | 0 | 0 | 3 | 5 | 2 | 5 | 0 |
| COC(=O)c1nc(-c2cncc(F)c2)ccc1N [Compound A41] | 0 | 0 | 2 | 0 | 2 | 0 | 0 | 1 | 2 | 0 | 2 | 0 |
| CCCCCCNc1ccc(-c2cncc(F)c2)nc1C(F)(F)F [Compound A42] | 0 | 2 | 4 | 1 | 5 | 0 | 1 | 3 | 5 | 2 | 5 | 1 |
| COc1nc(-c2cncc(F)c2)ccc1N [Compound A43] | 0 | 0 | 0 | 1 | 1 | 0 | 0 | 1 | 1 | 1 | 2 | 0 |
| N#Cc1nc(-c2cncnc2)ccc1N [Compound A44] | 0 | 1 | 3 | 2 | 5 | 0 | 0 | 2 | 3 | 1 | 4 | 0 |
| Fc1cncc(-c2ccc(NC3CC3)c(C(F)(F)F)n2)c1 [Compound A46] | 0 | 1 | 2 | 0 | 4 | 0 | 1 | 3 | 4 | 2 | 4 | 1 |
| CCCNc1ccc(-c2cncc(F)c2)nc1C(F)(F)F [Compound A47] | 0 | 1 | 3 | 1 | 4 | 0 | 0 | 2 | 4 | 2 | 5 | 2 |
| CCCN(CCC)c1ccc(-c2cncc(F)c2)nc1C(F)(F)F [Compound A48] | 0 | 0 | 4 | 0 | 4 | 0 | 0 | 3 | 4 | 2 | 5 | 1 |
| Fc1cncc(-c2ccc(NCCc3ccccc3)c(C(F)(F)F)n2)c1 [Compound A49] | 0 | 1 | 3 | 1 | 5 | 0 | 0 | 3 | 3 | 3 | 5 | 0 |
| Nc1ccc(-c2cncc(F)c2)nc1-c1ccccc1 [Compound A50] | 0 | 0 | 1 | 0 | 1 | 0 | 0 | 0 | 1 | 0 | 2 | 0 |
